Measurements as given in patent publication US10124033B2, “Peptides and methods of use” (BAXALTA INCORPORATED, priority 2014, dated 2018).
Like-named read-outs stand apart in the source and are kept apart here. Residues, ends and D or L forms follow the SMILES beside them.

Tests used:
Protein S = target: T1, Protein S (Homo sapiens, UniProt P07225); experiment: competition (IC50) ELISA with biotinylated tracer peptide JBS0684; assay type: binding
T1 sequence (P07225 41-676 limits assumed): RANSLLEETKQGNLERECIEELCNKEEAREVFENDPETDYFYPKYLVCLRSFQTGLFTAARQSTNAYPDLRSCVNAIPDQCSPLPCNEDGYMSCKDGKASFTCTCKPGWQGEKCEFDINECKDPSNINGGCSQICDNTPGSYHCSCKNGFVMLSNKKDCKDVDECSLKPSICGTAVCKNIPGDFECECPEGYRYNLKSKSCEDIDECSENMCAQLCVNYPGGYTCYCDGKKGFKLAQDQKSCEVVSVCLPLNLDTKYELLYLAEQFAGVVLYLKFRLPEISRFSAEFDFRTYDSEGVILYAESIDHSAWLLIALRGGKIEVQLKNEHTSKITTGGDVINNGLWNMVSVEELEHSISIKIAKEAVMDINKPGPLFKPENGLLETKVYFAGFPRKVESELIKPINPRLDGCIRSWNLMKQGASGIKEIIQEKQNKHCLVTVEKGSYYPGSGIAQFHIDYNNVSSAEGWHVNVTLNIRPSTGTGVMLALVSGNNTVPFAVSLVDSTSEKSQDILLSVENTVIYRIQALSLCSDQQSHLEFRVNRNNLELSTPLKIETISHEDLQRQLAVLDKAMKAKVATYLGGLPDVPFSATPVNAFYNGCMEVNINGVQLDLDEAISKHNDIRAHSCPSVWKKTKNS
Protocol: The new peptide candidates were synthesized (purity >60%) and screened for affinity in a competitive binding assay (ELISA IC50) and activity in a thrombin generation assay (CAT). The competition (IC50) ELISA was performed using biotinylated tracer peptide JBS0684 to compete for Protein S-binding with candidate peptides. Peptides that compete with the tracer bind the same region of Protein S as the tracer (and each other). Ninety-six well PolySorp plates (Nunc) were coated with 3 μg/mL Protein S in coating buffer (15 mM Na2CO3, 35 mM NaHCO3, pH 9.6) over night. Plates were washed three times with wash buffer (HNaT: 175 mM NaCl, 25 mM HEPES, 5 mM CaCl2, 0.1% Tween 80, pH 7.35), and blocked with 100 μl 2% yeast extract in HNaT for at least 1 hour. Plates were then washed three times with HNaT. JBS0684 was applied at a concentration corresponding to the EC90 value determined in the binding ELISA. A competitor stock solution of peptide (10 mM) was diluted 1/33.3 in HNaT without HSA, and a serial ⅓ dilution was prepared with HNaT with 3% DMSO. The dilution was further diluted with the biotinylated tracer peptide in a ratio of 1:6 (20 μl competitor dilution and 100 μl tracer peptide). The mixture of competitor and tracer peptide was applied to the Protein S-coated microtiter plate and incubated for 1.5 hours. The plates were washed three times with HNaT. Peptide-Protein S binding was detected by applying HRP-conjugated streptavidin to the microtiter plate, incubating the mixture for one hour, washing the plate three times with HNaT, applying TMB (3,3′5,5′-Tetramethylbenzidin), and detecting the subsequent chromogenic conversion of TMB by HRP. IC50 measurements of peptides are provided herein (see, e.g., Table 3).

[1] = target: T2, Protein S/APC cofactor activity (Homo sapiens, UniProt P07225); experiment: CAT assay: Protein S/APC-dependent thrombin generation in FVIII-inhibited plasma; assay type: biochemical
T2 construct: host or cells: plasma
T2 sequence (P07225 41-676 limits assumed): T1 sequence (P07225 41-676 limits assumed)
Protocol: Peptides also were tested for improvement of Protein S/APC-dependent thrombin generation in hemophilic plasma using a CAT assay. Protein S enhances the anticoagulation of APC in plasma. The CAT assay quantifies the effect of Protein S on APC-mediated thrombin generation initiated via the extrinsic coagulation pathway (Nicolaes, Blood Coagul. Fibrinolysis, 8:28 (1997)). APC (35 nM) and Protein S (25 nM) was added to Protein 5-depleted plasma, and plasma samples were incubated with high titer heat inactivated anti-human FVIII plasma raised in goat (4490 BU/ml; Baxter BioScience, Vienna, Austria; 50 BU/ml final plasma concentration). Thrombin formation in plasma was followed by calibrated automated thrombography (CAT) in a Fluoroskan Ascent® reader (Thermo Labsystems, Helsinki, Finland) and quantified via the thrombin peak-height. Thrombin generation was determined at high tissue factor (TF) concentration in the absence and in the presence of APC at a concentration that reduces the peak height to ˜20%. The inhibitory effect of peptides described herein on the APC cofactor activity of Protein S (PS) in plasma was measured in FVIII-inhibited pooled normal plasma supplemented with APC. Complete (100%) Protein S/APC inhibition is the height of the thrombin peak without addition of APC. Lack of (0%) PS/APC inhibition correlates to the thrombin peak-height value with a certain amount of APC. Peptides were ranked by their normalized values in comparison to the mean of wild-type controls including SD at two defined peptide concentrations (EC50 and EC90).
Exemplary conditions for the CAT assay are as follows. Protein S-depleted plasma was supplemented with 35 nM APC and […]. Stock APC was diluted with 10 pM TF and 15 μM PL. Lyophilized peptides were dissolved in 100% DMSO to a 5 mM stock concentration and further diluted with HNABSA5-buffer+0.1% Tween80. […] In a 96 well Immulon 2HB (transparent), U-bottom (ThermoElectron) plate was mixed 80 μl plasma (+CTI+Z994-5), 10 μl peptide dilution, and 10 μl APC-TF-PL-MIX or Calibrator. Thrombin generation was initiated by dispensing 20 μL of FluCa reagent containing fluorogenic substrate and HEPES-buffered CaCl2 (100 mM) into each well. Fluorescence intensity was recorded at 37° C. using the Fluoroskan Ascent® reader (filters 390 nm excitation and 460 nm emission). The parameters of the resulting thrombin generation curves were calculated using the Thrombinoscope™ software (Thrombinoscope) and thrombin calibrator to correct for inner filter and substrate consumption effects (Hemker, Pathophysiol Haemost Thromb, 33: 415 (2003)).

[2] = target: T3, human full-length Protein S (Homo sapiens, UniProt P07225); experiment: Biacore (surface plasmon resonance) on immobilized Protein S; assay type: binding; conditions: for koff: read-out: koff; for kon: read-out: kon
T3 construct: using human full-length Protein S and human GAS6
T3 sequence (P07225 41-676 limits assumed): T1 sequence (P07225 41-676 limits assumed)
Protocol: Protein S affinity also was determined via Biacore (Biacore 3000 or Biacore T200) using human full-length Protein S and human GAS6. Briefly, 1000 RU of Protein S or GAS6 were immobilized on a CMS chip. In order to probe the kinetics of Protein S binding peptides to Protein S, the peptides were injected at various concentrations in a HBS-buffer containing 3 mM CaCl2 and 1% DMSO to the flow cell and allowed to interact with the immobilized proteins on the sensor chip. The chip could be regenerated with 4 M MgCl2 in HBS-buffer. Sensorgrams were fitted to a Langmuir binding model for the determination of kon and koff and the calculation of KD. Peptides were tested on their specificity to Protein S with peptide binding studies on the anti-target GAS6.

[3] = His to Leu substitution at position 3

increase of affinity compared to JBS2512 (Protein S; [3]): 1.6 fold
IC50 (Protein S; competition ELISA, tracer JBS0684, re-synthesized peptides): 2.5 ± 0.3 nM
increase of activity in the CAT-assay compared to JBS2512 [1, 3]: 1.6 fold
PS/APC-dependent thrombin generation in hemophilic plasma ([1]; hemophilic plasma): improved
Kd ([2]; 25° C., read-out: KD for binding to Protein S): 6 nM
koff ([2]; 25° C.): 0.00148 s⁻¹
kon ([2]; 25° C.): 248000 M⁻¹ s⁻¹
Kd ([2]; 37° C., read-out: KD): 4 nM
koff ([2]; 37° C.): 0.00431 s⁻¹
kon ([2]; 37° C.): 1.14e+06 M⁻¹ s⁻¹
Kd ([2]; Biacore, affinity-matured and modified peptides, read-out: KD): 4 nM
Structure (SMILES): CC(=O)N[C@H](C(=O)NCC(=O)N[C@@H](CC(C)C)C(=O)N[C@H](C(=O)N[C@@H](CO)C(=O)N[C@@H](C)C(=O)NCC(=O)N[C@@H](Cc1c[nH]c2ccccc12)C(=O)N[C@@H](Cc1ccc(O)cc1)C(=O)N[C@@H](CC(=O)O)C(=O)N[C@@H](Cc1ccc(O)cc1)C(=O)N[C@@H](CC(N)=O)C(=O)N[C@@H](Cc1ccccc1)C(=O)N[C@@H](CC(=O)O)C(=O)N[C@@H](Cc1c[nH]cn1)C(=O)N[C@@H](Cc1ccc(O)cc1)C(=O)N[C@@H](CCCNC(=N)N)C(=O)N[C@@H](CCC(=O)O)C(=O)N[C@@H](Cc1ccccc1)C(=O)N[C@H](C(N)=O)[C@@H](C)O)C(C)C)[C@@H](C)O [JBS2572] (Ac-TGLVSAGWYDYNFDHYREFT-NH2)
